Results reported in publication PMC12295927, “Design, Synthesis, and Testing of 1,2,3-Triazolo-Quinobenzothiazine Hybrids for Cytotoxic and Immunomodulatory Activity” (International Journal of Molecular Sciences, 2025).
pIC50: −log10 of the molar value.

What was measured:
Format in all cases: cell-based, Human
BEAS-2B = test: Alamar Blue cytotoxicity test, BEAS-2B; settings: Homo sapiens, 24 h, 24 h incubation, read-out: IC50 values for BEAS-2B line
Method: The cytotoxicity of the tested chemical compounds MJ1–MJ20 was tested using the Alamar Blue test. The experiment was conducted on cell lines BEAS-2B (Figure 7), HCT116 (Figure 8), U2OS (Figure 9), MCF7 (Figure 10), SH-SY5Y (Figure 11), NHDF (Figure 12), and A549 (Figure 13). Cells were seeded in 96-well plates and incubated with the tested compounds for 24 h. The test result is the IC50 parameter, which is a measure of cytotoxic activity expressed by the concentration of the substance that causes the death of half of the analyzed cells compared to the control.
In cytotoxicity studies, the Alamar Blue test was used, which is based on the ability of living cells to reduce the non-fluorescent dye resazurin to fluorescent resorufin, which reflects the metabolic activity of cells. BEAS-2B, NHDF, HCT116, MCF7, A549, SH-SY5Y and U2OS cell lines were cultured under standard conditions, in DMEM medium supplemented with 10% FBS and 1% penicillin/streptomycin, at 37 °C, 5% CO2 and 95% humidity. Cells were seeded in 96-well plates at 1 × 10^4 cells per well and incubated for 24 h. Then, the tested compounds (MJ1–MJ20) were added at different concentrations (from 6.25 µM to 100 µM). The control contained cells untreated with the tested compounds. After 24 h of incubation, 10 µL of Alamar Blue solution was added to each well and incubated for another 2–4 h under the same conditions. The signal was measured spectrophotometrically at wavelengths of 570 nm (for resorufin) and 600 nm (for resazurin) or optionally fluorimetrically, using an excitation maximum of 570 nm and an emission maximum of 585 nm. The results were presented as percentage of cell survival relative to the control, calculating the ratio of absorbance or fluorescence of the sample to the control value. The Alamar Blue assay, due to its sensitivity and non-toxicity, allows for an accurate assessment of metabolic activity and cell survival in response to the tested quinobenzothiazines.

MDM2 gene = test: RT-qPCR MDM2 gene expression in BEAS-2B; settings: 24 h; for fold induction at 100 µM: Homo sapiens, reference gene RPL41, vs untreated control, read-out: Relative level of expression, MDM2 gene
Method: (§1) Real-time polymerase chain reaction was performed for the reference gene RPL41 (ribosomal protein L41) and the tested genes: BCL2, AIFM2, MDM2, IL6 and IL8. […] The BEAS-2B line was selected for the experiment. The expression level of selected genes was measured after 24 h of incubation with the tested substances MJ1–MJ20 at a concentration of 100 μM (Table 3).
The RT-qPCR experiment was performed for the BEAS-2B cell line. In this experiment, the MDM2 gene was studied and RPL41 was used as reference gene (Figure 15).
(§2) Gene expression studies used quantitative RT-qPCR to assess the effect of the tested quinobenzothiazines (MJ1–MJ20) on the expression of apoptosis-related genes (BCL2, AIFM2, MDM2) and pro-inflammatory cytokines (IL6, IL8) (Table 4).
(§3) BEAS-2B and HCT116 cells were seeded in 6-well plates at 2 × 10^5 cells per well and cultured in RPMI-1640 (BEAS-2B) or DMEM (HCT116) medium supplemented with 10% FBS and 1% penicillin/streptomycin at 37 °C, 5% CO2 and 95% humidity. After 24 h of incubation, the tested compounds were added at a concentration of 100 µM. After 24 h, the medium was removed from the cells, washed with PBS solution, 0.5 mL of trypsin was added per well and after 5 min it was neutralized with medium. The obtained cell suspension was centrifuged for 3 min at 2000 rpm, the supernatant was removed, and the obtained pellet was suspended in 400 µL of phenozol. Samples were frozen at −20 °C and stored until further experiment and RNA isolation.
(§4) Total RNA was isolated from cells using the A&A Biotechnology Total RNA Mini kit according to the manufacturer’s protocol. RNA quality and quantity were assessed using a NanoDrop 2000 spectrophotometer at 260/280 nm. Reverse transcription was performed using the protocol (EURx NG dART RT Kit) to obtain cDNA. After incubation, samples were placed in a freezer (−20 °C) and stored until further analysis.
(§5) The experiment was performed according to the protocol (Brilliant III Ultra Fast SYBR® Green QPCR Master Mix, Quick Reference Guide for the Bio-Rad CFX96 Real-Time PCR Detection System). RT-qPCR reaction was performed using specific primers for target genes (BCL2, AIFM2, MDM2, IL6, IL8). Gene expression was normalized to the expression of the reference gene RPL41. Reaction profiles and results were performed using Bio-Rad CFX Maestro 1.1 software from Bio-Rad. Analysis and calculations of the results obtained during RT-qPCR were performed using Microsoft Excel.
(§6) The results were analyzed using the R = 2^−ΔΔCt method, which allows for determining the relative level of gene expression (R) compared to the control. Each experiment was performed in three technical and biological replicates. RT-qPCR allowed for precise assessment of changes in the expression of genes related to the processes of apoptosis and inflammatory response under the influence of quinobenzothiazines, which allowed for identifying their potential mechanisms of action at the molecular level.

AIFM2 gene = test: RT-qPCR AIFM2 gene expression in BEAS-2B; settings: 24 h; for fold induction at 100 µM: Homo sapiens, reference gene RPL41, vs untreated control, read-out: Relative level of expression, AIFM2 gene; for AIFM2 expression increase: 100 μM, compared to control
Method: as §1
The RT-qPCR experiment was performed for the BEAS-2B cell line. In this experiment, the AIFM2 gene was studied and RPL41 was used as reference gene (Figure 16).
as §2, §3, §4, §5, §6

IL6 gene = test: RT-qPCR IL6 gene expression in BEAS-2B; settings: 24 h; for fold induction at 100 µM: Homo sapiens, reference gene RPL41, vs untreated control, read-out: Relative level of expression, IL6 gene
Method: as §1
The RT-qPCR experiment was performed for the BEAS-2B cell line. In this experiment, the IL6 and IL8 genes were studied and RPL41 was used as a reference gene (Figure 17 and Figure 18).
as §2, §3, §4, §5, §6

Row | Compound | pIC50 (BEAS-2B) | fold induction at 100 µM (MDM2 gene) | fold induction at 100 µM (AIFM2 gene) | fold induction at 100 µM (IL6 gene) | AIFM2 expression increase (AIFM2 gene) | MDM2 expression increase (MDM2 gene; 100 μM, compared to control) | IL6 expression increase (IL6 gene; 100 μM, compared to control)
1 | Clc1ccc2c(c1)Sc1cc3ccccc3nc1N2Cc1cn(CSc2ccccc2)nn1 [MJ15, 9-Chloro-6-((1-((phenylthio)methyl)-1H-1,2,3-triazol-4-yl)methyl)-quino[3,2-b]benzo[1,4]thiazine] | 4.06 | 6.4 | 2.6 | 13 |  |  | 
2 | Fc1ccc(Cn2cc(CN3c4ccccc4Sc4cc5ccccc5nc43)nn2)cc1 [MJ2, 6-((1-(4-Fluorobenzyl)-1H-1,2,3-triazol-4-yl)methyl)-quino[3,2-b]benzo[1,4]thiazine] | 4.12 | 6.3 | 11.4 | 1.7 | 11.4 fold |  | 
3 | CSc1ccc2c(c1)Sc1cc3ccccc3nc1N2Cc1cn(Cc2ccc(C#N)cc2)nn1 [MJ19, 4-((4-((9-Methylthioquino[3,2-b]benzo[1,4]thiazin-6-yl)methyl)-1H-1,2,3-triazol-1-yl)methyl)benzonitrile] | 4.14 | 10.3 | 14.9 | 57.2 | 14.9 fold | 10.3 fold | 57.2 fold
4 | Fc1ccc2c(c1)Sc1cc3ccccc3nc1N2Cc1cn(Cc2ccc(Cl)cc2)nn1 [MJ8, 9-Fluoro-6-[(1-(4-chlorobenzyl)-1H-1,2,3-triazol-4-yl)methyl]-quino[3,2-b]benzo-[1,4]thiazine] | 4.14 | 8.1 | 4.2 | 9.9 |  |  | 
